Test results as given in ChEMBL document CHEMBL3301562, “MMV Box screening against Plasmodium falciparum protein kinases and aminoacyl tRNA synthetases”.

Columns and labels:
Assay type in all cases: functional
[1] = target: T1, Putative uncharacterized protein pk7 (Plasmodium falciparum, UniProt O96214); test: Final concentrations were 1 uM ATP, 2 mM DTT, 20 mM MgCl2, 2 mM MnCl2, 0.01% BSA, and 6 ug/ml PK7, in a buffer of 20 mM Tris-HCl (pH 7.5). The enzyme itself was the only substrate present (since autophosphorylation occurs); 100 uM 1NA-PP1 was used as a control inhibitor. Incubation time was 3 hours.
T1 sequence (O96214 whole entry): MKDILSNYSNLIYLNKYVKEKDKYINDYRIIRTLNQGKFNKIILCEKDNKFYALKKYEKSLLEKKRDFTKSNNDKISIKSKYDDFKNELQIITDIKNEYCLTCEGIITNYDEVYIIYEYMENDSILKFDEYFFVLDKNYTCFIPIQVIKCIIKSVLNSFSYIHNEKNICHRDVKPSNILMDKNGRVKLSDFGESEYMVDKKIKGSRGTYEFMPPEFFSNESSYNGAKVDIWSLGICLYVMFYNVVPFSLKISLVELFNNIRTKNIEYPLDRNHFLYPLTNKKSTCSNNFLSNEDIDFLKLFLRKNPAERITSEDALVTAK

[2] = target: Calcium-dependent protein kinase 1 (Plasmodium falciparum, UniProt P62344); test: MMV: CDPK1 Protein kinase inhibition assay using recombinant PfCDPK1, syntide 2 peptide substrate, ATP and KinaseGlo to measure % inhibition at 1 uM MMV box compound.
Sequence of Calcium-dependent protein kinase 1 (P62344 whole entry): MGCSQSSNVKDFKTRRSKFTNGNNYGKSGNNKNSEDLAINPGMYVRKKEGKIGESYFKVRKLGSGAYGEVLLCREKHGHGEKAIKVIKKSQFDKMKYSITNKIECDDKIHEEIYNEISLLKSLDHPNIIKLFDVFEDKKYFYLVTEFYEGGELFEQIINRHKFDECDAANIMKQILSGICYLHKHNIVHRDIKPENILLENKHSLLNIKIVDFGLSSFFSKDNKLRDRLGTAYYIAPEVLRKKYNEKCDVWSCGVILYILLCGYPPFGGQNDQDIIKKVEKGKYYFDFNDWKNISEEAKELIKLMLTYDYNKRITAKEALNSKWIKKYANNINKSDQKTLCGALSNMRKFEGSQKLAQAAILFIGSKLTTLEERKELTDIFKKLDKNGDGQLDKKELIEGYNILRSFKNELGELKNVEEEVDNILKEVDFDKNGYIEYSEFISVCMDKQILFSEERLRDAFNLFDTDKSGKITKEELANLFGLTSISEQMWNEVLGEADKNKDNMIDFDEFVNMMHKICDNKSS

[3] = target: T2, Calcium-dependent protein kinase 4 (Plasmodium falciparum (isolate 3D7), UniProt Q8IBS5); test: MMV: CDPK4 Protein kinase inhibition assay using recombinant PfCDPK4, syntide2 peptide substrate, ATP and KinaseGlo to measure % inhibition at 1 uM MMV box compound.
T2 sequence (Q8IBS5 whole entry): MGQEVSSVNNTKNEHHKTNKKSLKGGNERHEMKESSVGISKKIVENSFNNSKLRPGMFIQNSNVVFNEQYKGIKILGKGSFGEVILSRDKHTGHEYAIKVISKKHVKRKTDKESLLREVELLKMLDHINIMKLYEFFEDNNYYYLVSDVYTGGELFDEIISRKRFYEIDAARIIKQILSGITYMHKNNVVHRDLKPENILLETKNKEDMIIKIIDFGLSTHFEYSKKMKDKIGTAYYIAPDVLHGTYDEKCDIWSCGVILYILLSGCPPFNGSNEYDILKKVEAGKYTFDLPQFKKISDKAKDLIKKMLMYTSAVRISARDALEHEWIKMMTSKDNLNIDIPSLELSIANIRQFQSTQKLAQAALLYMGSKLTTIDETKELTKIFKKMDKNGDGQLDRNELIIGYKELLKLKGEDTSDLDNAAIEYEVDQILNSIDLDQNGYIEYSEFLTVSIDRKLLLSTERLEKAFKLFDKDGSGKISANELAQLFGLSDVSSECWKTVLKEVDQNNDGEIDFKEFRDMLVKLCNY

[4] = target: T3, Cdk-related protein kinase 6 (Plasmodium falciparum, UniProt O77239); test: Final concentrations were 1.5 uM ATP, 5 mM MnCl2, and 15 ug/ml PK6 in a buffer of 100 mM Tris-HCl (pH 7.5). 50 ug/mL MBP was provided as the substrate; 10 uM staurosporine was used as a control inhibitor. Incubation time was 3 hours and 40 minutes.The catalytic activity of each kinase was considered proportional to ATP consumed, as determined from measurements of residual [ATP] with the luciferase-based reagent Kinase-Glo (Promega) following incubation. Luminescence (proportional to residual [ATP]) was measured on the plate readers FLx800 (BioTek Instruments, Winooski, VT, USA) and MicroBeta2.
T3 sequence (O77239 whole entry): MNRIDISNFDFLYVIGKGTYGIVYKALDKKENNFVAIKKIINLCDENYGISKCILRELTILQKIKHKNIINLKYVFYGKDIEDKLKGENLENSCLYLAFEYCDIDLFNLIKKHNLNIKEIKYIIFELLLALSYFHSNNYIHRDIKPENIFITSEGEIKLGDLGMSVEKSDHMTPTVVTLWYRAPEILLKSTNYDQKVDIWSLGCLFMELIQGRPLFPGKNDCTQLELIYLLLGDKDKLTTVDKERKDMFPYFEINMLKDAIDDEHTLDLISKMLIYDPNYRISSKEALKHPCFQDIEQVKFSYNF

Proline--tRNA ligase = target: T4, Proline--tRNA ligase (Plasmodium falciparum (isolate 3D7), UniProt Q8I5R7); test: MMV: ProRS recombinant Plasmodium falciparum Prolyl-tRNA-synthetase, assay with yeast tRNA, ATP, and proline and 3 uM MMV malaria box compound, assay read out with kinase glo as % inhibition.
T4 sequence (Q8I5R7 whole entry): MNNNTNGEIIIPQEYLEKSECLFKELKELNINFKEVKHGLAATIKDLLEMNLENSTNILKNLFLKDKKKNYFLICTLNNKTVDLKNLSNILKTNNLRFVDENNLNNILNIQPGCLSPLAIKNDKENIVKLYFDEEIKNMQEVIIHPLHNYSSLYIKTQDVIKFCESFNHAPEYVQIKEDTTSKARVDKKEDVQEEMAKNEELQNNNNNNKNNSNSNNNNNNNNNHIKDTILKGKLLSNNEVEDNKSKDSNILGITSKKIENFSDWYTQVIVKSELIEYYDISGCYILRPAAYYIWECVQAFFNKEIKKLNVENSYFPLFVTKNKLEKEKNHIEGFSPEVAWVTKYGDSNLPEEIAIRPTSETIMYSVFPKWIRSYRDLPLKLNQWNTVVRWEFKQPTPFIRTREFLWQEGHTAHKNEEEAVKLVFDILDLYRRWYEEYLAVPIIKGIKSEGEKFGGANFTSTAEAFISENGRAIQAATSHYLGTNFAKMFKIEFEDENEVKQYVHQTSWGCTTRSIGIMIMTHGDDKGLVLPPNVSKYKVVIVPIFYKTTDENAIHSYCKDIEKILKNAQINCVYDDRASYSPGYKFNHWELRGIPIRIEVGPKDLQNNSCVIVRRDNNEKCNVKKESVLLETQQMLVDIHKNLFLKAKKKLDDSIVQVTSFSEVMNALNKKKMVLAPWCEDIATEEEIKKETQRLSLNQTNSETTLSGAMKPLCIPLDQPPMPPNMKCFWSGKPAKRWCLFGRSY

Lysine--tRNA ligase = Lysine--tRNA ligase (Plasmodium falciparum (isolate 3D7), UniProt Q8IDJ8); test: MMV: KRS recombinant Plasmodium falciparum Lysyl-tRNA-synthetase, assay with yeast tRNA, ATP, and lysine and 3 uM MMV malaria box compound, assay read out with kinase glo as % inhibition.
Sequence of Lysine--tRNA ligase (Q8IDJ8 whole entry): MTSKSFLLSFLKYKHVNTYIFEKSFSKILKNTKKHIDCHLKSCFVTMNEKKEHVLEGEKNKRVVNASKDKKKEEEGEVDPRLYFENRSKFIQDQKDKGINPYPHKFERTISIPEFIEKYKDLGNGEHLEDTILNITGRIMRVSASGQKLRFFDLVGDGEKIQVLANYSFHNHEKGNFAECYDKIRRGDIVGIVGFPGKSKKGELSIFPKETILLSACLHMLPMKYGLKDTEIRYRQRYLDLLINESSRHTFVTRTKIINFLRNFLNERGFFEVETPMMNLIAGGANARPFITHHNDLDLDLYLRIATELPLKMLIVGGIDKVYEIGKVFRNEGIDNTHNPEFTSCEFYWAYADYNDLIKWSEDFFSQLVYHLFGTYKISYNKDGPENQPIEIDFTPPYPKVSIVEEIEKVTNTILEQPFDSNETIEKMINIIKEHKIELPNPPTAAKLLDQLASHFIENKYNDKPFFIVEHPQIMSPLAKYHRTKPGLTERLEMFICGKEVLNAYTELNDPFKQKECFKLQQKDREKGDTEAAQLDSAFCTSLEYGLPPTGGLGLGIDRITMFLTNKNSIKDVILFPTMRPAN

[5] = target: T5, Mitogen-activated protein kinase (Plasmodium falciparum, UniProt Q25917); test: Final concentrations were 1 uM ATP, 0.5 mM DTT, 1 mM MgCl2, 0.5 mg/mL BSA, and 10 ug/ml MAP2 in a buffer of 50 mM HEPES (pH 7.0). 0.5 mg/mL histone III-S served as the substrate (13); 100 uM AMP-PNP, an ATP analog, was used as a control inhibitor. Incubation time was 4 hours.
T5 sequence (Q25917 whole entry): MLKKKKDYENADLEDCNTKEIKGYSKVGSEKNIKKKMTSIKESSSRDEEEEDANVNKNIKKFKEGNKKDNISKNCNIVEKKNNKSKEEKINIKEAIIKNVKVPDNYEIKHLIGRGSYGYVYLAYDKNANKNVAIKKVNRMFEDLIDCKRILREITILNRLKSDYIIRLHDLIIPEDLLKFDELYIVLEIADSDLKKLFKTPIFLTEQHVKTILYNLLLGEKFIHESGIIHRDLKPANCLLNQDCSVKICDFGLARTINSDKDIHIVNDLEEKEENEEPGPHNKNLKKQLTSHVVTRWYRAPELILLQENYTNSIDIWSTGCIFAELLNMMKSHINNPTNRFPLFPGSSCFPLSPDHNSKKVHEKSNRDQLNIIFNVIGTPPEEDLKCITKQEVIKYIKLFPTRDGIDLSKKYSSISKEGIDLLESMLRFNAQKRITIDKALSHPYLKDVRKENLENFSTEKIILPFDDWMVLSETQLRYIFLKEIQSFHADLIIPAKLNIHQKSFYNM

SMILES | IC50 [1] [µM] | IC50 [2] [µM] | IC50 [3] [µM] | IC50 [4] [µM] | IC50 (Proline--tRNA ligase) [µM] | IC50 (Lysine--tRNA ligase) [µM] | IC50 [5] [µM]
O=C(Nc1ccc(Cl)c(Cl)c1)Nc1ccc(Cl)c(Cl)c1 | > 1 | > 1 | > 1 | > 1 | > 2.5 | > 2.5 | > 1
COc1ccc(-c2nc(N3CCN(C(=O)C4CCCCC4)CC3)c3c4c(sc3n2)CCCC4)cc1 | > 1 | > 1 | > 1 | > 1 | > 2.5 | > 2.5 | > 1
COc1ccc(CCN2C(=O)c3[nH]nc(-c4cc(Cl)c(C)cc4O)c3C2c2ccccc2F)cc1 (configuration not stated) | > 1 | > 1 | > 1 | > 1 | > 2.5 | > 2.5 | > 1
CCOc1ccc(N2C(N)=NC(N)=NC2(C)C)cc1 | > 1 | > 1 | > 1 | > 1 | > 2.5 | > 2.5 | > 1
O=C(CCl)NCCOc1ccc(Cl)cc1Cl | > 1 | > 1 | > 1 | > 1 | > 2.5 | > 2.5 | > 1
Oc1ccc(-c2nc(-c3ccc4oc5ccc(-c6[nH]c(-c7ccc(O)cc7)nc6-c6ccccc6)cc5c4c3)c(-c3ccccc3)[nH]2)cc1 | > 1 | > 1 | > 1 | > 1 | > 2.5 | > 2.5 | > 1
COc1ccc(CCn2c(=N)c(C(=O)NCc3cccnc3)cc3c(=O)n4cccc(C)c4nc32)cc1 | > 1 | > 1 | > 1 | > 1 | > 2.5 | > 2.5 | > 1
COc1ccc(Nc2cc(C)nc(NCc3ccccc3)n2)cc1 | > 1 | > 1 | > 1 | > 1 | > 2.5 | > 2.5 | > 1
O=C1c2ccc3c4c(ccc(c24)C(=O)N1CCCCO)C(=O)N(CCCCO)C3=O | > 1 | > 1 | > 1 | > 1 | > 2.5 | > 2.5 | > 1
COc1ccc(C(=O)C(CCC(CNC(C)(C)C)C(=O)c2ccc(OC)cc2)CNC(C)(C)C)cc1 (configuration not stated) | > 1 | > 1 | > 1 | > 1 | > 2.5 | > 2.5 | > 1
CN1C=C(c2ccc3ccccc3n2)C(c2c[nH]c3ccccc23)c2ccccc21 (configuration not stated) | > 1 | > 1 | > 1 | > 1 | > 2.5 | > 2.5 | > 1
OC(CNC1CCCCC1)Cn1c2ccc(I)cc2c2cc(I)ccc21 (configuration not stated) | > 1 | > 1 | > 1 | > 1 | > 2.5 | > 2.5 | > 1
COc1cc(CNCCc2ccc(Cl)cc2)cc(OC)c1O | > 1 | > 1 | > 1 | > 1 | > 2.5 | > 2.5 | > 1
Oc1ccc(Br)cc1CN1CCN(Cc2ccc(Cl)cc2)CC1 | > 1 | > 1 | > 1 | > 1 | > 2.5 | > 2.5 | > 1
CC(C)(C)c1ccc(C2CC3=Nc4ccccc4N(C(=O)c4ccccc4Cl)C(c4ccc(F)cc4)C3=C(O)C2)cc1 (configuration not stated) | > 1 | > 1 | > 1 | > 1 | > 2.5 | > 2.5 | > 1
CN1CCN(c2nc(Nc3ccc(O)cc3)nc3ccccc23)CC1 | > 1 | > 1 | > 1 | > 1 | > 2.5 | > 2.5 | > 1
